Measured values published in paper PMC5831858, “Pharmacological characterisation of CR6086, a potent prostaglandin E2 receptor 4 antagonist, as a new potential disease-modifying anti-rheumatic drug” (Arthritis Research & Therapy, 2018).
Marks after values point to notes of the source that are not given here.

Tests used:
[1] = tested on: arthritic mice (collagen-induced arthritis model); assay: CIA in mice, third study (CR6086, MTX, combination): clinical score, oedema, histology; assay type: in vivo, mouse; conditions: for CLINICAL SCORE (interquartile range): median (IQR)
[2] = tested on: arthritic mice (collagen-induced arthritis model); assay: Serum anti-bCII IgG antibodies (ELISA), CIA mice third study; assay type: in vivo, mouse; conditions: end of treatment
Method: In a third study, mice were randomised into the following treatment groups: naive, vehicle, 30 mg/kg CR6086, 1 or 3 mg/kg MTX, with the latter administered alone or in combination with 30 mg/kg CR6086. CR6086 was administered orally once daily. MTX was administered intraperitoneally three times per week (every third day). Mice were treated with test drugs for 16 days.
At the end of the treatment period, animals were killed, and their paws were explanted and processed for histology. In the third study, the serum concentrations of immunoglobulin G (IgG) antibodies against bCII were measured by ELISA (catalogue number 2032; Chondrex, Redmond, WA, USA).

[3] = tested on: arthritic rats (collagen-induced arthritis model); assay: Collagen-induced arthritis in rats: clinical score, oedema, histology; assay type: in vivo, rat; conditions: 15 mg/kg once daily
Method: (§1) Male Lewis rats were immunised by intradermal injection at the base of the tail with an emulsion containing 150 μg of bovine collagen type II (bCII) in complete Freund’s adjuvant (CFA) or received an injection with incomplete Freund’s adjuvant (sham group). Three weeks after the first immunisation, animals were boosted with the same procedure. Three days after booster injection, arthritis had developed in all animals but the sham group. Oedema was assessed via plethysmometer (Ugo Basile, Varese, Italy), and the animals were then randomised to treatment groups. Oedema measurement was performed again after 7 and 14 days of treatment. Animals were blindly scored by two different investigators for clinical signs of arthritis (redness, swelling, pain of hind limb joints) as follows: 0 = normal; 1 = mild but definite redness and swelling of the ankle or wrist or individual digits, regardless of the number of affected digits; 2 = moderate redness and swelling of ankle or wrist; 3 = severe redness and swelling of the entire paw including digits; and 4 = maximally inflamed limb with involvement of multiple joints. The mean of the scores assigned by the investigators was calculated.
Three different experiments in rat CIA are reported: a dose-response study, as well as two comparative studies vs the COX-2 inhibitor rofecoxib and the Janus kinase (JAK) inhibitor tofacitinib, respectively.
Briefly, the paws were fixed in 10% neutral buffered formalin (Bio-Optica, Milan, Italy) and subsequently decalcified in EDTA for 4 weeks. Samples were dehydrated in an ethanol series and embedded in paraffin. At least three non-consecutive sections for each paw were blindly scored at the level of the tarsus, metatarsus and calcaneus for the following histological features: synovial oedema, pannus, synovial inflammatory cell infiltrate, cartilage damage, osteolysis and woven bone. Based on these histological features, a synovial score (synovial oedema, plus synovial inflammatory cell infiltrate, plus pannus), a bone score (woven bone plus osteolysis) and a total score were calculated. Two independent pathologists performed histopathology on blinded slides. The data of right and left hind limbs were summed for each rat.

[4] = tested on: arthritic rats (collagen-induced arthritis model); assay: Mechanical hyperalgesia (PAM) in CIA rats; assay type: in vivo, rat; conditions: 15 mg/kg, mean ± SEM
Method: as §1
In the comparative experiment vs rofecoxib, mechanical hyperalgesia was assessed at the end of treatment by using a digital pressure application measurement (PAM) device (Ugo Basile). Increasing pressure was applied to the lateral side of the knee until the animal attempted to escape or vocalised. The force required to elicit this response was measured in grams (gram-force). An optimal stimulus increase rate of 100 g/second was used, and mechanical thresholds were reached after approximately 10 seconds. This increase was visualised with a rate meter on the built-in display, so the pressure applied was visually controlled. At the end of the experiment, animals were killed, and their hind paws were explanted and processed for histology.

[5] = tested on: arthritic mice (collagen-induced arthritis model); assay: FACS analysis of cell populations in the joint, CIA mice; assay type: in vivo, mouse; conditions: CR6086 60 mg/kg, naproxen 60 mg/kg, etanercept 10 mg/kg, mean ± SEM
Method: (§2) In a first study, mice were randomised into the following treatment groups: vehicle, 30 mg/kg CR6086, 60 mg/kg CR6086, 60 mg/kg naproxen and 10 mg/kg etanercept. Animals received the test drugs for 10 days. CR6086 and naproxen were administered orally once daily, whereas etanercept was administered intraperitoneally every other day. Animals treated with vehicle, 60 mg/kg CR6086, naproxen and etanercept were additionally analysed for the proportion of populations of Th17 cells, Th1 cells, regulatory T cells, B cells, macrophages, neutrophils and dendritic cells by fluorescence-activated cell sorting (FACS) after collection of blood, draining lymph nodes and joints.

[6] = tested on: arthritic mice (collagen-induced arthritis model); assay: CIA in mice, first study: clinical score and paw swelling; assay type: in vivo, mouse; conditions: 10 days; CR6086 30 and 60 mg/kg, naproxen 60 mg/kg oral once daily; etanercept 10 mg/kg i.p. every other day
Method: Male DBA/1 mice were immunised by intradermal injection at the base of the tail with an emulsion of 200 μg of bCII in CFA containing 3 mg/ml Mycobacterium tuberculosis. Non-immunised mice served as the negative control of disease. Animals were monitored by visual inspection for appearance of peripheral oedema. […] Upon onset, animals were recruited and randomised. Recruitment was given a cut-off at day 40. Upon recruitment, arthritis clinical score was assigned, and oedema was measured via caliper.
as §2
Oedema measurement was performed every day before treatment, and all animals were blindly scored for clinical signs of arthritis as follows: 0 = normal; 1 = slight swelling and/or erythema; 2 = pronounced oedematous swelling; and 3 = ankyloses and severe swelling. A score of 0.5 was given to swollen toe/toes or when inflammation was localised to one part of the foot. Each limb was measured separately, with a final score based on the sum of the scores from all four paws.

Molecule: CN(Cc1cnc2nc(N)nc(N)c2n1)c1ccc(C(=O)N[C@@H](CCC(=O)O)C(=O)O)cc1 [MTX, methotrexate]
- effect on joint histopathology ([1]; 16 days, 30 mg/kg CR6086, 3 mg/kg MTX, alone or combined): significantly improved all histological features of arthritis
- CLINICAL SCORE (interquartile range) ([1]; DAY 0, 1 mg/kg MTX): 3.0 (2.4 – 3.3) *
- CLINICAL SCORE (interquartile range) ([1]; DAY 0, 3 mg/kg MTX): 2.0 (2.0 – 2.0) *
- CLINICAL SCORE (interquartile range) ([1]; DAY 1, 1 mg/kg MTX): 2.8 (2.0 – 3.0)
- CLINICAL SCORE (interquartile range) ([1]; DAY 1, 3 mg/kg MTX): 2.3 (2.0 – 3.0)
- CLINICAL SCORE (interquartile range) ([1]; DAY 2, 1 mg/kg MTX): 3.0 (3.0 – 4.0)
- CLINICAL SCORE (interquartile range) ([1]; DAY 2, 3 mg/kg MTX): 3.0 (2.1 – 3.8)
- CLINICAL SCORE (interquartile range) ([1]; DAY 3, 1 mg/kg MTX): 4.0 (3.0 – 4.8)
- CLINICAL SCORE (interquartile range) ([1]; DAY 3, 3 mg/kg MTX): 3.0 (2.3 – 6.0)
- CLINICAL SCORE (interquartile range) ([1]; DAY 4, 1 mg/kg MTX): 3.5 (3.0 – 5.5)
- CLINICAL SCORE (interquartile range) ([1]; DAY 4, 3 mg/kg MTX): 4.0 (2.0 – 5.5)
- CLINICAL SCORE (interquartile range) ([1]; DAY 5, 1 mg/kg MTX): 5.0 (3.4 – 6.3)
- CLINICAL SCORE (interquartile range) ([1]; DAY 5, 3 mg/kg MTX): 3.5 (2.4 – 4.8)
- CLINICAL SCORE (interquartile range) ([1]; DAY 6, 1 mg/kg MTX): 4.8 (3.3 – 8.1)
- CLINICAL SCORE (interquartile range) ([1]; DAY 6, 3 mg/kg MTX): 4.0 (2.0 – 5.5)
- CLINICAL SCORE (interquartile range) ([1]; DAY 7, 1 mg/kg MTX): 4.5 (2.8 – 7.5)
- CLINICAL SCORE (interquartile range) ([1]; DAY 7, 3 mg/kg MTX): 4.5 (2.6 – 6.0)
- CLINICAL SCORE (interquartile range) ([1]; DAY 8, 1 mg/kg MTX): 5.5 (3.8 – 7.6)
- CLINICAL SCORE (interquartile range) ([1]; DAY 8, 3 mg/kg MTX): 4.3 (2.4 – 6.4)
- CLINICAL SCORE (interquartile range) ([1]; DAY 9, 1 mg/kg MTX): 5.0 (3.3 – 7.0)
- CLINICAL SCORE (interquartile range) ([1]; DAY 9, 3 mg/kg MTX): 4.5 (3.0 – 5.0)
- CLINICAL SCORE (interquartile range) ([1]; DAY 10, 1 mg/kg MTX): 6.5 (3.0 – 7.3)
- CLINICAL SCORE (interquartile range) ([1]; DAY 10, 3 mg/kg MTX): 5.0 (2.5 – 5.5)
- CLINICAL SCORE (interquartile range) ([1]; DAY 11, 1 mg/kg MTX): 7.3 (4.4 – 7.5)
- CLINICAL SCORE (interquartile range) ([1]; DAY 11, 3 mg/kg MTX): 5.0 (2.5 – 6.0)
- CLINICAL SCORE (interquartile range) ([1]; DAY 12, 1 mg/kg MTX): 6.8 (5.3 – 7.5)
- CLINICAL SCORE (interquartile range) ([1]; DAY 12, 3 mg/kg MTX): 5.5 (2.0 – 7.5)
- CLINICAL SCORE (interquartile range) ([1]; DAY 13, 1 mg/kg MTX): 6.3 (4.5 – 7.0)
- CLINICAL SCORE (interquartile range) ([1]; DAY 13, 3 mg/kg MTX): 6.0 (2.0 – 7.0)
- CLINICAL SCORE (interquartile range) ([1]; DAY 14, 1 mg/kg MTX): 7.3 (5.0 – 7.6)
- CLINICAL SCORE (interquartile range) ([1]; DAY 14, 3 mg/kg MTX): 4.5 (2.0 – 6.0)
- CLINICAL SCORE (interquartile range) ([1]; DAY 15, 1 mg/kg MTX): 6.5 (5.0 – 7.5)
- CLINICAL SCORE (interquartile range) ([1]; DAY 15, 3 mg/kg MTX): 4.5 (3.1 – 7.0)
- CLINICAL SCORE (interquartile range) ([1]; DAY 16, 1 mg/kg MTX): 6.5 (5.5 – 8.3)
- CLINICAL SCORE (interquartile range) ([1]; DAY 16, 3 mg/kg MTX): 4.5 (2.3 – 5.4)
- Anti-collagen II ([2]; 1 mg/kg MTX): 483.83 ± 102.82 µg/mL
- Anti-collagen II ([2]; 3 mg/kg MTX): 242.46 ± 79.35 µg/mL

Molecule: CS(=O)(=O)c1ccc(C2=C(c3ccccc3)C(=O)OC2)cc1 [rofecoxib, reference compound]
- effect on clinical score [3]: small effect
- effect on structural and inflammatory parameters (oedema, histology) ([3]; 14 days): improved to a slight but significant extent the inflammatory parameters (not the structural ones)
- Mechanical hyperalgesia, Day 0 ([4]; Day 0): 943.70 ± 73.42^a gram-force
- Mechanical hyperalgesia, Day 7 ([4]; Day 7): 673.18 ± 53.76^b gram-force
- Mechanical hyperalgesia, Day 14 ([4]; Day 14): 799.68 ± 61.15^b,c gram-force

Molecule: etanercept
- B cells, Percentage of total cells [5]: 5.74 ± 0.68%
- Dendritic cells, Percentage of total cells [5]: 1.51 ± 0.18%
- Macrophages, Percentage of total cells [5]: 12.31 ± 5.19%
- Neutrophils, Percentage of total cells [5]: 10.53 ± 2.81%
- Th1, Percentage of total cells [5]: 0.20 ± 0.05^a %
- Th17, Percentage of total cells [5]: 0.16 ± 0.08%
- Treg, Percentage of total cells [5]: 0.39 ± 0.10%
- effect on disease parameters (visual clinical score, paw swelling) vs vehicle [6]: significantly improved
